According to paper PMC10480161, “Identification of potent and selective N-myristoyltransferase inhibitors of Plasmodium vivax liver stage hypnozoites and schizonts” (Nature Communications, 2023):
pIC50: −log10 of the molar value. Where “and” joins values, the source holds several entries; their conditions need not be identical. Equal entries are not always repeated.

How the values were obtained:
P. vivax schizonts = assay: P. vivax liver stage assay, schizonts; type: cell-based, Plasmodium vivax; conditions: for Number of liverstage Schizonts per well: 20 µM, 8 dpi; for pIC50: Plasmodium vivax, Hepatocyte, 120 h, primary human hepatocytes, treatment day 5 to 8 post-infection, isolates 2 and 3
Experimental: We next evaluated the candidate compounds against liver-stage P. vivax (Fig. 5). P. vivax sporozoites were obtained from three independent patient isolates and cultured in primary human hepatocytes from a single donor lot using a 384-well microculture system as described previously. Cells were infected and treated with NMTis at 20 µM beginning day 5 post-infection until day 8 when the infection rates were quantified by fluorescent microscopy.
(§1) Accordingly, we applied dose–response curves of all the tested NMTs on parasite isolates 2 and 3 over concentrations up to 20 µM (Fig. 5c, d, Source Data file). We observed similar kinetics for all inhibitors, with a gradual decrease in parasite load upon increasing the drug concentration. […] Nuclei were counted in each well using DAPI staining as a measure of toxicity (Supplementary Fig. 86, Supplementary Source data). We used the phosphatidylinositol 4-kinase inhibitor (PI4Ki), MMV390048, as a positive control for eliminating schizonts[37],[38].
(§2) Plasmodium vivax liver stage assays were performed as described previously. Cryopreserved primary human hepatocytes (Cat No. F00995-P) and hepatocyte culture medium (HCM) (InVitroGroTM CP Medium) were obtained from Bioreclamation IVT, Inc., (Baltimore, MD, USA). Briefly, we seeded 384-well plates with primary hepatocytes from a single donor lot at a density of 25,000 cells per well. We then infected the hepatocytes with 14,000 freshly hand-dissected sporozoites per well. Cells were exposed to the compounds at indicated concentrations from day 5 post-infection. We used Pi4K inhibitor MMV390048, at 20 µM, as a positive control to eliminate P. vivax liver schizonts. We then proceeded to feed cultures every day, replacing the compounds until day 8 post-infection. Cells were fixed with 4% PFA, permeabilized with 1% Triton X-100, blocked with 2% BSA, and stained with DAPI and PvUIS4 antibodies to detect schizonts and hypnozoites forms by confocal microscopy. For antibody dilutions, PvUIS4 (kind gift from Dr. Noah Sather, Seattle Children’s Research Institute) was diluted 1:250 and the secondary antibody was anti-mouse AlexaFluor-594 (Cat # A-11005; RRID: AB_2534073) diluted 1:1000. DAPI was diluted 1:2000. The images were processed, analyzed and outlier cells were removed using IMARIS (Bitplane Inc.) image analysis software.

P. vivax hypnozoites = assay: P. vivax liver stage assay, hypnozoites; type: cell-based, Plasmodium vivax; conditions: for Hypnozoites per well: Isolate 2, replicate wells (Figure 6d); for Number of liverstage hypnozoites per well: 20 µM, 8 dpi; for pIC50: Plasmodium vivax, Hepatocyte, 120 h, primary human hepatocytes, treatment day 5 to 8 post-infection, isolate 2
Experimental: Finally, we evaluated the NMT-binding compounds against non-developing P. vivax hypnozoites. […] (Fig. 6A). […] We, therefore, evaluated the impact of all tested compounds on P. vivax hypnozoites using these two isolates.
as §2

[1] = test system: primary human hepatocytes; assay: Nuclear counts (DAPI) in P. vivax-infected primary hepatocytes as measure of toxicity; type: cell-based; conditions: two technical replicates
Experimental: as §1, with “file).” for “file). We observed similar kinetics for all inhibitors, with a gradual decrease in parasite load upon increasing the drug concentration.”
as §2, with “For antibody dilutions, PvUIS4 (kind gift from Dr. Noah Sather, Seattle Children’s Research Institute) was diluted 1:250 and the secondary antibody was anti-mouse AlexaFluor-594 (Cat # A-11005; RRID: AB_2534073) diluted 1:1000.” left out
Supplementary Fig. 86. […] Nuclear […]
counts, normalized to DMSO controls, for NMT inhibitors across a dose response. Counts were ob-tained using DAPI staining from the P. vivax-infected wells quantified in Fig. 5d. Error bars represent the standard deviation of two technical replicates.
(1 picture or pasted object on this page, not shown here)

PvNMT = PvNMT (Plasmodium vivax, UniProt A5K1A2); assay: NMT activity assay (CPM detection of free CoA), PvNMT; conditions: for pIC50: PvNMT IC50, mean of two or more determinations; for SI: enzyme selectivity, HsNMT IC50/PvNMT IC50
PvNMT, sequence (A5K1A2 entry or part of it): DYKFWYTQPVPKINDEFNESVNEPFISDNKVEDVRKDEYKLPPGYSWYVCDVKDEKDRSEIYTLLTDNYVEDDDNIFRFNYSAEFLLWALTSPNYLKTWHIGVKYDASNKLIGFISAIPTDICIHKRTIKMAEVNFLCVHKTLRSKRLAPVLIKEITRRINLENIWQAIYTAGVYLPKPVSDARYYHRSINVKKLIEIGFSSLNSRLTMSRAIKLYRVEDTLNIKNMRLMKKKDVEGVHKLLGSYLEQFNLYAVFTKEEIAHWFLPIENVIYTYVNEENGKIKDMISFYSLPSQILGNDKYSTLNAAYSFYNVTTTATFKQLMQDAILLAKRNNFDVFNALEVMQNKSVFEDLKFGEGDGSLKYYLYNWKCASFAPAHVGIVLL

HsNMT1 = biological target: T1, HsNMT1 (Homo sapiens, UniProt P30419); assay: NMT activity assay (CPM detection of free CoA), HsNMT
T1 sequence (P30419 1-496): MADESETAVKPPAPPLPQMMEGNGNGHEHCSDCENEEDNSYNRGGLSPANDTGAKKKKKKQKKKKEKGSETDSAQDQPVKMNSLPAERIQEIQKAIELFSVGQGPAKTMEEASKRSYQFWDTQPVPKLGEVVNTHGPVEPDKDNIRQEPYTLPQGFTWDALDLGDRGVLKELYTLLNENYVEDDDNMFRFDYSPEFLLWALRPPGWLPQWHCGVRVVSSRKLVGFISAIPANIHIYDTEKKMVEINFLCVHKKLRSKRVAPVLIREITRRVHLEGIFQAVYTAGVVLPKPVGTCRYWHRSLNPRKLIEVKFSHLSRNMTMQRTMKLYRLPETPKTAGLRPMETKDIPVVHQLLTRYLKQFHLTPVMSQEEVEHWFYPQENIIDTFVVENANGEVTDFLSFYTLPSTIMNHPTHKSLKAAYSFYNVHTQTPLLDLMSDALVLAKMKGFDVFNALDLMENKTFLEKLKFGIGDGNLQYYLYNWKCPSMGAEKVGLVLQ

[2] = isolate 1, technical replicates (Fig. 5b)
[3] = isolate 2, technical replicates (Fig. 5b)
[4] = isolate 3, technical replicates (Fig. 5b)
[5] = isolate 1, technical replicates (Fig. 6C)
[6] = isolate 2, technical replicates (Fig. 6C)
[7] = isolate 3, technical replicates (Fig. 6C)

| Compound | Number of liverstage Schizonts per well (P. vivax schizonts; [2]) | Number of liverstage Schizonts per well (P. vivax schizonts; [3]) | Number of liverstage Schizonts per well (P. vivax schizonts; [4]) | Schizonts per well (P. vivax schizonts; Isolate 2, 1.25 uM) | Schizonts per well (P. vivax schizonts; Isolate 2, 2.5 uM) | Schizonts per well (P. vivax schizonts; Isolate 2, 5 uM) | Schizonts per well (P. vivax schizonts; Isolate 3, 1.25 uM) | Schizonts per well (P. vivax schizonts; Isolate 3, 2.5 uM) | Schizonts per well (P. vivax schizonts; Isolate 3, 5 uM) | Schizonts per well (P. vivax schizonts; Isolate 3, 10 uM) | Schizonts per well (P. vivax schizonts; Isolate 3, 20 uM (Fig. 5c-d)) | pIC50 (P. vivax schizonts) | schizonts (fold change to DMSO) mean diff (P. vivax schizonts; isolate 1, 20 µM) | schizonts (fold change to DMSO) mean diff (P. vivax schizonts; isolate 2, 20 µM) | schizonts (fold change to DMSO) mean diff (P. vivax schizonts; isolate 3, 20 µM) | Hypnozoites per well (P. vivax hypnozoites; 1.25 uM) | Hypnozoites per well (P. vivax hypnozoites; 2.5 uM) | Hypnozoites per well (P. vivax hypnozoites; 5 uM) | Hypnozoites per well (P. vivax hypnozoites; 10 uM) | Number of liverstage hypnozoites per well (P. vivax hypnozoites; [5]) | also measured |
| --- | --- | --- | --- | --- | --- | --- | --- | --- | --- | --- | --- | --- | --- | --- | --- | --- | --- | --- | --- | --- | --- |
| Cc1nn(C)c(C)c1CCOc1ccccc1-c1cccc(N2CCNCC2)c1 [Compound 12d] | 1 per well (2×) and 0 per well | 2 per well and 0 per well and 1 per well | 2 per well and 1 per well | 12 per well and 13 per well | 11 per well and 9 per well and 15 per well | 9 per well and 7 per well and 11 per well | 12 per well | 6 per well and 11 per well | 7 per well and 6 per well | 5 per well and 4 per well | 2 per well and 1 per well | 5.37 to 5.48 | 0.967 | 0.9434 | 0.8977 | 11 and 8 and 9 | 7 (2×) and 8 | 5 (2×) and 7 | 3 (2×) and 2 | 1 per well (2×) and 0 per well | Schizonts per well (P. vivax schizonts; Isolate 2, 10 uM): 8 per well and 5 per well; Number of liverstage hypnozoites per well (P. vivax hypnozoites; [6]): 3 per well and 0 per well and 1 per well; Number of liverstage hypnozoites per well (P. vivax hypnozoites; [7]): 0 per well; Hypnozoites per well (P. vivax hypnozoites; 20 uM): 3 and 0 and 1; pIC50 (P. vivax hypnozoites): 5.33; hypnozoites (fold change to DMSO) mean diff (P. vivax hypnozoites; isolate 1, 20 µM): 0.939; hypnozoites (fold change to DMSO) mean diff (P. vivax hypnozoites; isolate 2, 20 µM): 0.862; Nucleus counts per well ([1]; 1 uM): 15900 per well and 16970 per well; Nucleus counts per well ([1]; 2.5uM): 14920 per well and 16520 per well; Nucleus counts per well ([1]; 5 uM): 15990 per well and 14720 per well; Nucleus counts per well ([1]; 10uM): 15680 per well and 15000 per well; Nucleus counts per well ([1]; 20uM, P. vivax-infected wells): 12690 per well and 13950 per well; pIC50 (PvNMT): 7.31; SI (PvNMT): 153.4; pIC50 (HsNMT1): 5.13 |
| Cc1nn(C)c(C)c1CCOc1cc(F)ccc1-c1cccc(N2CCNCC2)c1 [Compound 12f] | 0 per well | 1 per well and 0 per well (2×) | 3 per well and 2 per well | 12 per well and 13 per well and 17 per well | 10 per well and 9 per well and 15 per well | 8 per well and 9 per well and 11 per well | 11 per well | 10 per well and 12 per well | 7 per well and 5 per well | 3 per well and 5 per well | 3 per well and 2 per well | 5.37 to 5.48 | 1.000 | 0.9811 | 0.8295 | 4 (2×) and 2 | 3 | 2 and 3 (2×) | 1 | 1 per well (2×) and 0 per well | Number of liverstage hypnozoites per well (P. vivax hypnozoites; [6]): 1 per well (2×) and 0 per well; Number of liverstage hypnozoites per well (P. vivax hypnozoites; [7]): 0 per well; Hypnozoites per well (P. vivax hypnozoites; 20 uM): 1 (2×) and 0; pIC50 (P. vivax hypnozoites): 5.82; hypnozoites (fold change to DMSO) mean diff (P. vivax hypnozoites; isolate 1, 20 µM): 0.939; hypnozoites (fold change to DMSO) mean diff (P. vivax hypnozoites; isolate 2, 20 µM): 0.931; Nucleus counts per well ([1]; 1 uM): 15280 per well and 15770 per well; Nucleus counts per well ([1]; 2.5uM): 15290 per well and 15210 per well; Nucleus counts per well ([1]; 5 uM): 15170 per well and 14310 per well; Nucleus counts per well ([1]; 10uM): 14300 per well and 15260 per well; Nucleus counts per well ([1]; 20uM, P. vivax-infected wells): 13150 per well and 16410 per well; pIC50 (PvNMT): 7.80; SI (PvNMT): 43.9; pIC50 (HsNMT1): 6.16 |
| c1cncc(CCOc2cccnc2-c2cccc(N3CCNCC3)c2)c1 [Compound 12g] | 0 per well | 3 per well and 4 per well and 6 per well | 3 per well | 10 per well and 11 per well and 19 per well | 11 per well and 12 per well and 16 per well | 6 per well and 8 per well and 11 per well | 13 per well and 11 per well | 7 per well and 6 per well | 8 per well and 4 per well | 5 per well | 3 per well | 5.51 to 5.66 | 1.000 | 0.7547 | 0.7955 | 5 and 0 and 3 | 3 and 4 and 0 | 1 and 2 and 0 | 1 and 0 (2×) | 1 per well and 0 per well (2×) | Schizonts per well (P. vivax schizonts; Isolate 2, 20 uM (Fig. 5c-d)): 3 per well and 4 per well and 6 per well; Number of liverstage hypnozoites per well (P. vivax hypnozoites; [6]): 1 per well and 0 per well (2×); Number of liverstage hypnozoites per well (P. vivax hypnozoites; [7]): 0 per well; Hypnozoites per well (P. vivax hypnozoites; 20 uM): 1 and 0 (2×); pIC50 (P. vivax hypnozoites): 5.92; hypnozoites (fold change to DMSO) mean diff (P. vivax hypnozoites; isolate 1, 20 µM): 0.785; hypnozoites (fold change to DMSO) mean diff (P. vivax hypnozoites; isolate 2, 20 µM): 0.966; Nucleus counts per well ([1]; 1 uM): 14940 per well and 14730 per well; Nucleus counts per well ([1]; 2.5uM): 14740 per well and 14990 per well; Nucleus counts per well ([1]; 5 uM): 14960 per well and 13600 per well; Nucleus counts per well ([1]; 10uM): 13740 per well and 14770 per well; Nucleus counts per well ([1]; 20uM, P. vivax-infected wells): 11770 per well and 13000 per well; pIC50 (PvNMT): 6.98; SI (PvNMT): 152.8; pIC50 (HsNMT1): 4.80 |
